We go through twelve compounds from US5591758A, “Organic nitrates, processes for their preparation and their use in the treatment of cardiovascular diseases” (Laboratoires Hoechst, SA, priority 1991, dated 1997).

The test system of experiment [1] is thoracic aorta. Put plainly: Vasorelaxant effect on isolated vessels (rat thoracic aorta rings without endothelium, precontracted with noradrenalin). The conditions noted are these: for Emax: Rattus norvegicus, maximum inhibition of noradrenalin effect, 10^-8 to 10^-4 M substance, read-out: Maximum Relaxation; for pIC50: rat aorta, 10^-7 M noradrenalin contraction. On the set-up: species or system Wistar rats. Here is the method: Vasorelaxant effect of the compounds according to the invention on isolated vessels.
Adult Wistar rats weighing between 250 and 350 g are anaesthetised by intraperitoneal injection of sodium pentobarbital (30 mg/kg). The thoracic aorta is rapidly removed and placed in a refrigerated and oxygenated solution of bicarbonate buffer of the Krebs-Ringer type (composition [mM]: NaCl, 118; KCl, 4.7; CaCl2, 2.5; MgSO4, 1.2; KH2 PO4, 1.2; NaHCO3, 25.0; disodium calcium salt of EDTA, 0.026; glucose 11.1). The aorta is dissected with the aim of removing the connective tissue and then cut into 6 rings (length 5-10 mm). The endothelium is removed by moderate abrasion of the intimal surface of the aortic segments with the aid of a pair of tweezers. These segments are then placed between two hooks in an isolated organ cell filled with 25 ml of bicarbonate buffer (pH 7.4), thermostat-controlled at 37° C. and oxygenated with the aid of a 95% O2 /5% CO2 mixture (pH 7.4). One of the hooks is fixed to a fixed point, while the second is connected to a transducer with the aim of measuring the variations in isometric voltage (expressed in grams). After an equilibration period of 30 min., the segments are progressively withdrawn so as to attain the level of base voltage for which the contractor response to noradrenalin (10^-7 M) is maximum (optimum voltage; average 2 g). The absence of endothelium is verified by addition of a single concentration of acetylcholine (10^-6 M), after precontraction of the vessels by noradrenalin (10^-7 M). The integrity of the vascular smooth muscle is also verified by adding a single concentration of a vasodilator whose response is independent of the presence of the endothelium, SIN-1 (10^-5 M). After this initial procedure, the aortas are washed, equilibrated for a period of 30 min and then recontracted (10^-7 M noradrenalin). The relaxant effect of the substance to be tested is then evaluated by adding increasing concentrations of this substance (from 10^-8 to 10^-4 M). The maximum inhibition of the concentration caused by noradrenalin (expressed as a percentage) is then calculated ("maximum relaxation"). When this maximum relaxation is greater than 50%, the concentration of substance tested producing a 50% inhibition of the maximum contraction (IC50) is calculated. Table V below collates the IC50 and the maximum relaxation percentages for the various compounds tested.

For experiment [2], the system named is anesthetised dogs. In words: Haemodynamic effects on anesthetised dogs. The format is in vivo, dogs (labrador/harrier cross). The protocol:
Haemodynamic effects of the compounds according to the invention on anesthetised pigs or dogs
The dogs, weighing between 16 and 26 kg, are the progeny of a labrador/harrier cross.
In the case of dogs the anesthesia is induced by sodium pentobarbitol (45 mg/jg i.v.) and maintained with an i.v. perfusion (flow rate of 8 mg/kg/h).
The pigs or dogs are placed under artificial respiration in ambient air. Analysis of the blood gases (pO2, pCO2) is carried out at regular intervals and oxygen can be supplied via the respirator, if necessary.
The haemodynamic parameters recorded include the left ventricular pressure (LVP; Millar PC350 Tip catheter inserted via the carotid artery), systemic blood pressure (BPs, BPd; full catheter in a femoral artery), the end pressure of the left ventricular diastole (LVEDP), the ventricular contractility (LVPdp/dtmax) and the heart rate (HR).
Following an equilibration period of the order of 45 minutes, the compounds studied are administered intraduodenally (i.d.) or intraveinously (i.v.) to several animals (1 to 4). The haemodynamic variables are recorded continuously for 1 to 3 hours, as a function of the period of action of the compound.
The effects of the compounds studied are shown as the absolute difference with respect to the base value (bv) measured before administration of the compounds and are shown in Table VII (a,b,c).
An antianginal activity is estimated by a fall in the BPs and the LVEDP (fall in venous return).

pIC50: −log10 of the molar value. Structures can show the parent of a compound that is named as a salt. Bounds are passed on as bounds.

Usually pIC50 stands for the IC50 on a negative log10 scale, so that one unit is a factor of ten. Read a high pIC50 as a low IC50. Turning to `CC(C)(C)OC(=O)N1CSC[C@H]1C(=O)N1CSC[C@H]1C(=O)N[C@H]1CO[C@H]2[C@@H]1OC[C@@H]2O[N+](=O)[O-]` [Compound 77, 5-[[[(4R)-N-[(3-t-butoxycarbonyl-4-L-thiazolidinyl)carbonyl]-4-thiazolidinyl]carbonyl]amino]-5-deoxy-2-O-nitro-1,4:3,6-dianhydro-L-iditol], in experiment [1], the Emax is 97% and the pIC50 is 4.40. For the same compound, in experiment [2] (dogs, 3 mg/kg i.d.), the “BPs (min), period of action” value is on record as > 180 min; the “BPs, difference to base value” is listed as -35 mmHg; the “LVEDP (min), period of action” value is listed as > 180 min; the “LVEDP, difference to base value” is recorded as -2,0 mmHg.
With `O=C(CNC(=O)[C@@H]1CCCN1)N[C@H]1CO[C@H]2[C@@H]1OC[C@@H]2O[N+](=O)[O-]` [Compound 49, 5-[[2-[[((2S)-2-pyrrolidinyl)carbonyl]amino]-1-oxoethyl]amino]-5-deoxy-2-O-nitro-1,4:3,6-dianhydro-L-iditol monohydrochloride], in experiment [1], the Emax is 100% and the pIC50 is 4.42. Also, in experiment [2] (dogs, 1,1 mg/kg i.d.), the “BPs (min), period of action” value is on record as > 240 min and the “BPs, difference to base value” was -32 mmHg.
In the case of `C[C@H](N)C(=O)N[C@H]1CO[C@H]2[C@@H]1OC[C@@H]2O[N+](=O)[O-]` [Compound 8, L-Alanine amide of 5-amino-5-deoxy-2-O-nitro-1,4:3,6-dianhydro-L-iditol monohydrochloride], in experiment [1], the Emax turned out to be 80% and the negative logarithm of the IC50 (pIC50) is 4.49. Besides, in experiment [2] (dogs, 3 mg/kg i.d.), the “BPs (min), period of action” value is given as > 150 min and the “BPs, difference to base value” was -30 mmHg.
Consider `CSCC[C@H](NC(=O)[C@@H]1CSCN1)C(=O)N[C@H]1CO[C@H]2[C@@H]1OC[C@@H]2O[N+](=O)[O-]` [Compound 68, 5-[[2-[[(4-n-thiazolidinyl)carbonyl]amino]-1-((2S)-2-(2'-thiomethyl)-ethyl)-oxoethyl]amino]-5-deoxy-2-O-nitro-1,4:3,6-dianhydro-L-iditol monohydrochloride], for which, in experiment [1], the Emax stood at 90% and the pIC50 was 4.54. In experiment [2] (dogs, 1 mg/kg i.d.), the “BPs (min), period of action” value is on record as > 180 min; the “BPs, difference to base value” is -30 mmHg; the “LVEDP (min), period of action” value is > 180 min; the “LVEDP, difference to base value” was -3,0 mmHg.
As to `CC(C)(C)OC(=O)N1CSC[C@H]1C(=O)N1CCC[C@H]1C(=O)N[C@H]1CO[C@H]2[C@@H]1OC[C@@H]2O[N+](=O)[O-]` [Compound 69, 5-[[[(2S)-N-[(3-t-butoxycarbonyl-4-L-thiazolidinyl)carbonyl]-2-pyrrolidinyl]carbonyl]amino]-5-deoxy-2-O-nitro-1,4:3,6-dianhydro-L-iditol], in experiment [1], the Emax worked out at 87% and the negative-log IC50 (pIC50) is 4.38. Moreover, in experiment [2] (dogs, 3 mg/kg i.d.), the “BPs (min), period of action” value was > 150 min; the “BPs, difference to base value” is -40 mmHg; the “LVEDP (min), period of action” value is > 150 min; the “LVEDP, difference to base value” is on record as -2,5 mmHg.
As to `CSCC[C@H](NC(=O)[C@@H]1CSCN1C(=O)OC(C)(C)C)C(=O)N[C@H]1CO[C@H]2[C@@H]1OC[C@@H]2O[N+](=O)[O-]` [Compound 67, 5-[[2-[[(3-t-butoxycarbonyl-4-L-thiazolidinyl)carbonyl]amino]-1-((2S)-2-(2'-thiomethyl)-ethyl)-oxoethyl]amino]-5-deoxy-2-O-nitro-1,4:3,6-dianhydro-L-iditol], in experiment [1], the Emax is 100% and the negative-log IC50 (pIC50) is 5.05. For the same compound, in experiment [2] (dogs, 3 mg/kg i.d.), the “BPs (min), period of action” value is recorded as > 90 min; the “BPs, difference to base value” is listed as -15 mmHg; the “LVEDP (min), period of action” value is > 90 min; the “LVEDP, difference to base value” is listed as -1,5 mmHg.
In the case of `CC(=O)NCSC[C@H](N)C(=O)N[C@H]1CO[C@H]2[C@@H]1OC[C@H]2O[N+](=O)[O-]` [Compound 42, S-[(Acetylamino)methyl]-L-cysteine amide of 2-amino-2-deoxy-5-O-nitro-1,4:3,6-dianhydro-D-glucitol monohydrochloride], in experiment [1], the Emax came to 92% and the pIC50 is 4.48. Besides, in experiment [2] (dogs, 10 mg/kg i.v.), the “BPs (min), period of action” value is reported as > 90 min; the “BPs, difference to base value” is recorded as -10 mmHg; the “LVEDP (min), period of action” value is 0 min; the “LVEDP, difference to base value” is 0,0 mmHg.
In the case of `CC(C)(C)OC(=O)N1CSC[C@H]1C(=O)NCC(=O)O[C@H]1CO[C@H]2[C@@H]1OC[C@H]2O[N+](=O)[O-]` [Compound 72, 2-O-[2-[[(3-t-butoxycarbonyl-4-L-thiazolidinyl)carbonyl]amino]-1-oxoethyl]-5-O-nitro-1,4:3,6-dianhydro-D-glucitol], in experiment [1], the Emax came out at 67% and the pIC50 is 4.19. In experiment [2] (dogs, 10 mg/kg i.v.), the “BPs (min), period of action” value stood at 0 min; the “BPs, difference to base value” is recorded as 0 mmHg; the “LVEDP (min), period of action” value is given as 0 min; the “LVEDP, difference to base value” was 0,0 mmHg.
For `O=C(N[C@H]1CO[C@H]2[C@@H]1OC[C@@H]2O[N+](=O)[O-])[C@@H]1CCCN1C(=O)[C@@H]1CSCN1` [Compound 70, 5-[[[(2S)-N-[(4-L-thiazolidinyl)carbonyl]-2-pyrrolidinyl]carbonyl]amino]-5-deoxy-2-O-nitro-1,4:3,6-dianhydro-L-iditol monohydrochloride], in experiment [1], the Emax was found to be 83% and the negative logarithm of the IC50 (pIC50) is 4.46. Further, in experiment [2] (dogs, 3 mg/kg i.d.), the “BPs (min), period of action” value is on record as > 90 min; the “BPs, difference to base value” is recorded as -30 mmHg; the “LVEDP (min), period of action” value was 0 min; the “LVEDP, difference to base value” was 0,0 mmHg.
As for `CC(C)(C)OC(=O)N1CSC[C@H]1C(=O)N[C@@H](Cc1ccccc1)C(=O)N[C@H]1CO[C@H]2[C@@H]1OC[C@@H]2O[N+](=O)[O-]` [Compound 65, 5-[[2-[[(3-t-butoxycarbonyl-4-L-thiazolidinyl)carbonyl]amino]-1-((2S)-2-benzyl)-oxoethyl]amino]-5-deoxy-2-O-nitro-1,4:3,6-dianhydro-L-iditol], in experiment [1], the Emax amounted to 100% and the negative logarithm of the IC50 (pIC50) is 4.70. Also, in experiment [2] (dogs, 3 mg/kg i.d.), the “BPs (min), period of action” value stood at 0 min; the “BPs, difference to base value” turned out to be 0 mmHg; the “LVEDP (min), period of action” value was 30 min; the “LVEDP, difference to base value” is reported as 1,0 mmHg.
Take `CC(C)[C@H](NC(=O)[C@@H]1CSCN1C(=O)OC(C)(C)C)C(=O)N[C@H]1CO[C@H]2[C@@H]1OC[C@@H]2O[N+](=O)[O-]` [Compound 63, 5-[[2-[[(3-t-butoxycarbonyl-4-L-thiazolidinyl)carbonyl]amino]-1-((2S)-2-isopropyl)-oxoethyl]amino]-5-deoxy-2-O-nitro-1,4:3,6-dianhydro-L-iditol]: in experiment [1], the Emax stood at 70% and the pIC50 is 4.15. For the same compound, in experiment [2] (dogs, 3 mg/kg i.v.), the “BPs (min), period of action” value is reported as > 60 min; the “BPs, difference to base value” was -20 mmHg; the “LVEDP (min), period of action” value came out at 60 min; the “LVEDP, difference to base value” is on record as -1,0 mmHg.
Consider `CC(=O)NCSC[C@H](NC(=O)OC(C)(C)C)C(=O)N[C@H]1CO[C@H]2[C@@H]1OC[C@H]2O[N+](=O)[O-]` [Compound 41, S-[(Acetylamino)methyl]-N-[(t-butoxy)carbonyl]-L-cysteine amide of 2-amino-2-deoxy-5-O-nitro-1,4:3,6-dianhydro-D-glucitol], for which, in experiment [1], the Emax came to 70% and the pIC50 is 4.20. Further, in experiment [2] (dogs, 3 mg/kg i.d.), the “BPs (min), period of action” value is > 180 min; the “BPs, difference to base value” was -25 mmHg; the “LVEDP (min), period of action” value is reported as 0 min; the “LVEDP, difference to base value” is recorded as 0,0 mmHg.
